20 molecules from ChEMBL document CHEMBL1140603, “Simple criterion for selection of flavonoid compounds with anti-HIV activity” (Bioorg Med Chem Lett, 2007) can be followed below.

Broadly, the EC50 is the concentration needed to bring the measured effect to its halfway point. A lower EC50 goes with an effect from little substance.

This assay relates to Human immunodeficiency virus 1. The assay is described as follows: Inhibition of HIV1 replication. Type of assay: functional, organism-based.
As for `O=c1c(O)c(-c2ccc(O)cc2O)oc2cc(O)cc(O)c12` [MORIN], the EC50 is < 100 µM.

In the case of `O=c1cc(-c2ccc(O)cc2)oc2cc(O)cc(O)c12` [APIGENIN], the EC50 was ≥ 100 µM. The value for `COc1ccc(-c2cc(=O)c3c(OC)c(OC)c(OC)c(OC)c3o2)cc1` [TANGERETIN] was ≥ 100 µM; that for `O=c1c(O)c(-c2ccc(O)c(O)c2)oc2cc(O)c(O)c(O)c12` [QUERCETAGETIN] was < 100 µM; that for `COc1cc(O)c2c(=O)cc(-c3ccc(O)cc3)oc2c1` [GENKWANIN] was ≥ 100 µM.

For `O=c1c(O)c(-c2ccc(O)cc2)oc2cc(O)cc(O)c12` [KAEMPFEROL], the EC50 was < 100 µM. The value for `O=c1cc(-c2ccccc2)oc2cc(O)cc(O)c12` [CHRYSIN] was ≥ 100 µM. Under `COc1ccc(-c2cc(=O)c3c(OC)c(OC)ccc3o2)cc1OC` stands ≥ 100 µM; under `COc1c(O)cc2oc(-c3ccc(O)c(O)c3)cc(=O)c2c1O` [EUPAFOLIN], < 100 µM. Take `O=c1c(O)c(-c2ccc(O)c(O)c2)oc2cc(O)ccc12` [FISETIN]: the EC50 is < 100 µM. Under `O=c1c(O)c(-c2ccc(O)c(O)c2)oc2cc(O)cc(O)c12` [QUERCETIN] stands < 100 µM; under `O=c1c(O)c(-c2cc(O)c(O)c(O)c2)oc2cc(O)ccc12` [ROBINETIN], < 100 µM; under `O=c1c(O)c(-c2cc(O)c(O)c(O)c2)oc2cc(O)cc(O)c12` [MYRICETIN], < 100 µM. With `COc1ccc(-c2cc(=O)c3c(OC)c(OC)c(OC)cc3o2)cc1`, the EC50 is ≥ 100 µM. The value for `COc1cc(O)c2c(=O)c(O)c(-c3ccc(O)c(O)c3)oc2c1` [RHAMNETIN] was < 100 µM. Under `O=c1cc(-c2ccccc2)oc2cc(O)ccc12` [7-HYDROXYFLAVONE] stands ≥ 100 µM; under `COc1ccc(-c2cc(=O)c3c(OC)c(OC)c(OC)cc3o2)cc1OC` [SINENSETIN], ≥ 100 µM.

As to `COc1ccc(-c2cc(=O)c3c(O)cc(O)cc3o2)cc1` [ACACETIN], the EC50 was ≥ 100 µM.

In the case of `COc1ccc(-c2oc3cc(O)ccc3c(=O)c2OC)cc1`, the EC50 is ≥ 100 µM.

Consider `O=c1cc(-c2ccc(O)c(O)c2)oc2ccccc12`, for which the EC50 was ≥ 100 µM.
